Test results published in US9815796B2 (Merck Sharp & Dohme Corp., priority 2013, dated 2017).
Read-outs that look alike come from different tables or passages of the source.

Legend:
Rhesus PDE2A3 = Rhesus PDE2A3 (Macaca mulatta, UniProt B3VTJ2); assay: PDE2 fluorescence polarization (IMAP FP) inhibition assay, rhesus enzyme; type: biochemical, rhesus macaque
Procedure, shortened: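 Rhesus PDE2A3 came from lysate of transiently transfected AD293 cells, diluted to give 20% substrate conversion. Substrate was 50 nM FAM-cAMP with 1 uM cGMP activator in Tris pH 7.2/MgCl2 buffer, run 60 min at room temperature over 10-point 3-fold dilutions in 1% DMSO. Read-out was IMAP fluorescence polarization (mP) after ≥1 h binding.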

human PDE2A1 = human PDE2A1 (Homo sapiens (Human), UniProt O00408); assay: IMAP FP PDE selectivity panel, human PDE2A1; type: biochemical
Chain of human PDE2A1 (O00408 other isoform, or with tags, fused parts or gaps): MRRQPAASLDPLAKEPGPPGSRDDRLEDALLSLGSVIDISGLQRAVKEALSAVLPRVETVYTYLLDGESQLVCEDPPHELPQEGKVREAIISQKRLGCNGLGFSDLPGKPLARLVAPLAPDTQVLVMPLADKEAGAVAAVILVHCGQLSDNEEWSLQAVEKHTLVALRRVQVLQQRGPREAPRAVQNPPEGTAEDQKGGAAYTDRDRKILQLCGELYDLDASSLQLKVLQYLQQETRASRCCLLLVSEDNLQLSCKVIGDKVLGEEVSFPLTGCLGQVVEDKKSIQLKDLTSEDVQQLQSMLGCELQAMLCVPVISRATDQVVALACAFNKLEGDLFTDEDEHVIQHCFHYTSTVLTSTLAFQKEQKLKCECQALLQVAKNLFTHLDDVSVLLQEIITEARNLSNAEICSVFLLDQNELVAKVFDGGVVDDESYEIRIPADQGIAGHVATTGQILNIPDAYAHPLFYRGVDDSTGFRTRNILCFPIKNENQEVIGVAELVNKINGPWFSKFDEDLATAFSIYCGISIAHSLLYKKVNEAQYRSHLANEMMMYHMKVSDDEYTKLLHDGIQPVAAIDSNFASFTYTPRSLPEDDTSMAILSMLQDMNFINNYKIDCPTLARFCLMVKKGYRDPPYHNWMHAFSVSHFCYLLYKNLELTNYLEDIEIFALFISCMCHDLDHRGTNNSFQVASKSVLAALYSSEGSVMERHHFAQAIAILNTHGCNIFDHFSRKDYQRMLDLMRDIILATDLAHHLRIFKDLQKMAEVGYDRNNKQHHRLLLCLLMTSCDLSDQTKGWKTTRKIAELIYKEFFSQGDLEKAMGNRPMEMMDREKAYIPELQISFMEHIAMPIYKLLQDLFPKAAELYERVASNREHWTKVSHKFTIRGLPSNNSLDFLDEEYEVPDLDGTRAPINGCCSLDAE
Procedure, shortened: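 GST-tagged human PDE2A1 expressed in insect cells, run at room temperature for 60 min with 50 nM FAM-cAMP containing 1000 nM cGMP, pH 7.2 Tris/MgCl2 buffer. IMAP fluorescence polarization read after binding step.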

[1] = Rhesus PDE2, Lab A, read-out: Rhesus PDE2 Ki (nM) - Lab A
[2] = Human PDE2, Lab A, read-out: Human PDE2 Ki (nM) - Lab A
[3] = Rhesus PDE2, Lab B, read-out: Rhesus PDE2 Ki (nM) - Lab B
[4] = Human PDE2, Lab B, read-out: Human PDE2 Ki (nM) - Lab B

Chain of Rhesus PDE2A3 (B3VTJ2 1-941): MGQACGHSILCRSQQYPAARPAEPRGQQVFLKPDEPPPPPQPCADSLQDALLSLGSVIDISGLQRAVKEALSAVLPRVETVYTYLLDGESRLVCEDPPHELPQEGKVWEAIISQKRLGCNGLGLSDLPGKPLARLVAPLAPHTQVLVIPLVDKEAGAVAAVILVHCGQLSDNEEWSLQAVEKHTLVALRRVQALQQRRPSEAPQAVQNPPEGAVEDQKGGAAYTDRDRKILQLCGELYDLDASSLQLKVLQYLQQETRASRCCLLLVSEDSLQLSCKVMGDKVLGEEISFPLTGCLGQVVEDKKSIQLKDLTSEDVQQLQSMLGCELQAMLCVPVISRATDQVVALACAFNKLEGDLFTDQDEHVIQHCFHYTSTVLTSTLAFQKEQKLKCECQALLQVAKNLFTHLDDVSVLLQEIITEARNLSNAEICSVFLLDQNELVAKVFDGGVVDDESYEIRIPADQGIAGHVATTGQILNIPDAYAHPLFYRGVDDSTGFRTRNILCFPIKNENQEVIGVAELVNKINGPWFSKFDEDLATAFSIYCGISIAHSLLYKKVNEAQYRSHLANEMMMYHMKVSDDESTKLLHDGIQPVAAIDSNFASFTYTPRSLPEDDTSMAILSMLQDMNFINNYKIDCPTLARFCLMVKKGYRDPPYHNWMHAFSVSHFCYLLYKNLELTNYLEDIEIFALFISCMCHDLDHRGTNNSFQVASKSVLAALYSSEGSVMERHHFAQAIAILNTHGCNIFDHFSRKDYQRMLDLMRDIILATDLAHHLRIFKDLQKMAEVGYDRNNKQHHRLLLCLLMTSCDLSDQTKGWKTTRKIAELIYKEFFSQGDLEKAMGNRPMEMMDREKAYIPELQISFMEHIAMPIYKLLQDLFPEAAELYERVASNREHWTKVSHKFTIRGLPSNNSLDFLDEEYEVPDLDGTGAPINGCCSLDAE

SMILES	Ki (Rhesus PDE2A3; [1]) [nM]	Ki (human PDE2A1; [2]) [nM]	Ki (Rhesus PDE2A3; [3]) [nM]	Ki (human PDE2A1; [4]) [nM]
O=C(N[C@@H](c1ccc(C(F)(F)F)cc1)C1CC1)c1cc(=O)[nH]c(-c2ccccc2)n1 [Example 177, N-{(R)-cyclopropyl[4-(trifluoromethyl)phenyl]methyl}-6-oxo-2-phenyl-1,6-dihydropyrimidine-4-carboxamide]	3.8	3.1	–	–
Cc1nc(C(=O)NC(C(=O)O)c2ccc(C(F)(F)F)cc2)cc(=O)[nH]1 (single isomer, unassigned) [Example 327]	4550	8100	–	–
O=C(NC1(c2ccc(SC(F)(F)F)cc2)CCC1)c1cc(=O)[nH]c(-c2ccccc2)n1 [Example 171, 6-oxo-2-phenyl-N-(1-{4-[(trifluoromethyl)sulfanyl]phenyl}cyclobutyl)-1,6-dihydropyrimidine-4-carboxamide]	28	32	–	–
C[C@@H](NC(=O)c1cc(=O)[nH]c(-c2ncccn2)n1)c1ccc(C2CC2)cc1 [Example 250, N-[(1R)-1-(4-cyclopropylphenyl)ethyl]-6-oxo-1,6-dihydro-2,2′-bipyrimidine-4-carboxamide]	5.3	–	5.4	6.3
COCc1nc(C(=O)N[C@@H](c2ccc(C(F)(F)F)c(F)c2)C2CC2)cc(=O)[nH]1 [Example 115, N-{(R)-cyclopropyl[3-fluoro-4-(trifluoromethyl)phenyl]methyl}-2-(methoxymethyl)-6-oxo-1,6-dihydropyrimidine-4-carboxamide]	73	15	–	–
CC(C)(NC(=O)c1cc(=O)[nH]c(-c2ccccc2)n1)c1ccc(OC(F)(F)F)cc1 [Example 281, N-{1-methyl-1-[4-(trifluoromethoxy)phenyl]ethyl}-6-oxo-2-phenyl-1,6-dihydropyrimidine-4-carboxamide]	133	82	–	–
Cc1nc(C(=O)N[C@@H](c2ccc(OC(F)(F)F)c(F)c2)C2CC2)cc(=O)[nH]1 [Example 40, N-{(R)-cyclopropyl[3-fluoro-4-(trifluoromethoxy)phenyl]methyl}-2-methyl-6-oxo-1,6-dihydropyrimidine-4-carboxamide]	19	9.3	–	–
CC(C)(NC(=O)c1cc(=O)[nH]c(C2CC2)n1)c1ccc(OC(F)(F)F)cc1 [Example 295, 2-cyclopropyl-N-{1-methyl-1-[4-(trifluoromethoxy)phenyl]ethyl}-6-oxo-1,6-dihydropyrimidine-4-carboxamide]	127	77	–	–
C[C@@H](NC(=O)c1cc(=O)[nH]c(C2CC2)n1)c1cc(F)c(C(F)(F)F)c(F)c1 [Example 218, 2-cyclopropyl-N-{(1R)-1-[3,5-difluoro-4-(trifluoromethyl)phenyl]ethyl}-6-oxo-1,6-dihydropyrimidine-4-carboxamide]	104	56	–	–
O=C(NC1(c2ccc(C(F)(F)F)cc2)CCCC1)c1cc(=O)[nH]c(C2CC2)n1 [Example 197, 2-cyclopropyl-6-oxo-N-{1-[4-(trifluoromethyl)phenyl]cyclopentyl}-1,6-dihydropyrimidine-4-carboxamide]	62	29	–	–
C[C@@H](NC(=O)c1cc(=O)[nH]cn1)c1ccc(C(F)(F)F)cc1 [Example 8, (R)-6-oxo-N-(1-(4-(trifluoromethyl)phenyl)ethyl)-1,6-dihydropyrimidine-4-carboxamide]	410	334	–	–
O=C(NC(CO)c1ccc(C(F)(F)F)cc1)c1cc(=O)[nH]c(-c2ccccc2)n1 (centres unmarked) [Example 185, N-{2-hydroxy-1-[4-(trifluoromethyl)phenyl]ethyl}-6-oxo-2-phenyl-1,6-dihydropyrimidine-4-carboxamide]	13	9.7	–	–
CCc1nc(C(=O)N[C@H](C)c2ccc(C(F)(F)F)cc2)c(CC)c(=O)[nH]1 [Example 333, (R)-2,5-diethyl-6-oxo-N-(1-(4-(trifluoromethyl)phenyl)ethyl)-1,6-dihydropyrimidine-4-carboxamide]	89	80	–	–
C[C@@H](NC(=O)c1cc(=O)[nH]c(-c2ccccc2)n1)c1ccc(C(F)(F)F)cc1 [Example 274, 6-oxo-2-phenyl-N-{(1R)-1-[4-(trifluoromethyl)phenyl]ethyl}-1,6-dihydropyrimidine-4-carboxamide]	6.7	6.7	–	–
Cc1nc(C(=O)NC(C)(C)c2ccc(C(F)(F)F)cc2)cc(=O)[nH]1 [Example 272, 2-methyl-N-{1-methyl-1-[4-(trifluoromethyl)phenyl]ethyl}-6-oxo-1,6-dihydropyrimidine-4-carboxamide]	42	40	–	71
C[C@@H](NC(=O)c1cc(=O)[nH]c(C2CC2)n1)c1ccc(C(F)(F)F)cc1 [Example 11, 2-cyclopropyl-6-oxo-N-{(1R)-1-[4-(trifluoromethyl)phenyl]ethyl}-1,6-dihydropyrimidine-4-carboxamide]	21	16	–	–
O=C(NC1(c2ccc(OC(F)(F)F)cc2)CCC1)c1cc(=O)[nH]c(C2CC2)n1 [Example 300, 2-cyclopropyl-6-oxo-N-{1-[4-(trifluoromethoxy)phenyl]cyclobutyl}-1,6-dihydropyrimidine-4-carboxamide]	88	55	–	–
Cc1nc(C(=O)NC2(c3ccc(C(F)(F)F)c(F)c3)CC2)cc(=O)[nH]1 [Example 44, N-{1-[3-fluoro-4-(trifluoromethyl)phenyl]cyclopropyl}-2-methyl-6-oxo-1,6-dihydropyrimidine-4-carboxamide]	17	10	16	16
CC(C)(NC(=O)c1cc(=O)[nH]c(C2CC2)n1)c1ccc(SC(F)(F)F)cc1 [Example 222, 2-cyclopropyl-N-(1-methyl-1-{4-[(trifluoromethyl)sulfanyl]phenyl}ethyl)-6-oxo-1,6-dihydropyrimidine-4-carboxamide]	89	45	–	–

More lines, now with the values ahead:

Ki (Rhesus PDE2A3; [1]) [nM]	Ki (human PDE2A1; [2]) [nM]	Ki (Rhesus PDE2A3; [3]) [nM]	Ki (human PDE2A1; [4]) [nM]	SMILES
–	–	1.1	0.86	COc1ccc(Cc2nc(C(=O)N[C@@H](c3ccc(OC(F)(F)F)c(F)c3)C(C)C)cc(=O)[nH]2)cc1 [Example 473, N-{(1R)-1-[3-fluoro-4-(trifluoromethoxy)phenyl]-2-methylpropyl}-2-(4-methoxybenzyl)-6-oxo-1,6-dihydropyrimidine-4-carboxamide]
–	–	84	56	CC[C@@H](NC(=O)c1cc(=O)[nH]c(C(C)(C)c2ccc(OC)cc2)n1)c1ccc(OC(F)(F)F)cc1 [Example 505, 2-[1-(4-methoxyphenyl)-1-methylethyl]-6-oxo-N-{(1R)-1-[4-(trifluoromethoxy)phenyl]propyl}-1,6-dihydropyrimidine-4-carboxamide]
–	–	4.1	3.9	CC[C@@H](NC(=O)c1cc(=O)[nH]c(Cc2ccc(OC)c(F)c2)n1)c1ccc(S(F)(F)(F)(F)F)cc1 [Example 526, 2-(3-fluoro-4-methoxybenzyl)-6-oxo-N-{(1R)-1-[4-(pentafluoro-λ^6-sulfanyl)phenyl]propyl}-1,6-dihydropyrimidine-4-carboxamide]
–	–	0.92	0.8	COc1ccc(Cc2nc(C(=O)N[C@@H](c3ccc(OC(F)(F)F)c(F)c3)C(C)(C)C)cc(=O)[nH]2)cc1F [Example 506, 2-(3-fluoro-4-methoxybenzyl)-N-{(1R)-1-[3-fluoro-4-(trifluoromethoxy)phenyl]-2,2-dimethylpropyl}-6-oxo-1,6-dihydropyrimidine-4-carboxamide]
–	–	54	45	CC[C@@H](NC(=O)c1cc(=O)[nH]c(C(C)(C)c2ccc(OC)cc2)n1)c1ccc(SC(F)(F)F)cc1 [Example 495, 2-[1-(4-methoxyphenyl)-1-methylethyl]-6-oxo-N-[(1R)-1-{4-[(trifluoromethyl)sulfanyl]phenyl}propyl]-1,6-dihydropyrimidine-4-carboxamide]
–	–	3.3	2.9	CC(C)[C@@H](NC(=O)c1cc(=O)[nH]c(-c2ccccc2)n1)c1ccc(SC(F)(F)F)cc1 [Example 419, N-[(1R)-2-methyl-1-{4-[(trifluoromethyl)sulfanyl]phenyl}pro-pyl]-6-oxo-2-phenyl-1,6-dihydropyrimidine-4-carboxamide]
–	–	2.3	1.9	COc1ccc(Cc2nc(C(=O)N[C@@H](c3ccc(C(F)(F)F)cc3)C3CC3)cc(=O)[nH]2)cc1F [Example 525, N-{(R)-cyclopropyl[4-(trifluoromethyl)phenyl]methyl}-2-(3-fluoro-4-methoxybenzyl)-6-oxo-1,6-dihydropyrimidine-4-carboxamide]
–	–	80	87	CC(C)(NC(=O)c1cc(=O)[nH]c(C2CC2)n1)c1ccc(S(F)(F)(F)(F)F)cc1 [Example 680, 2-cyclopropyl-N-{1-methyl-1-[4-(pentafluoro-λ^6-sulfanyl)phenyl]ethyl}-6-oxo-1,6-dihydropyrimidine-4-carboxamide]
–	–	4.7	3.9	CC(C)[C@@H](NC(=O)c1cc(=O)[nH]c(-c2ccccc2)n1)c1ccc(S(F)(F)(F)(F)F)cc1 [Example 388, N-{(1R)-2-methyl-1-[4-(pentafluoro-λ^6-sulfanyl)phenyl]propyl}-6-oxo-2-phenyl-1,6-dihydropyrimidine-4-carboxamide]
–	–	27	27	COc1ccc(C(C)(C)c2nc(C(=O)N[C@@H](c3ccc(SC(F)(F)F)c(F)c3)C(C)C)cc(=O)[nH]2)cc1 [Example 491, N-[(1R)-1-{3-fluoro-4-[(trifluoromethyl)sulfanoyl]phenyl}-2-methylpropyl]-2-[1-(4-methoxyphenyl)-1-methylethyl]-6-oxo-1,6-dihydropyrimidine-4-carboxamide]
